What is called IC50 is the concentration at which inhibition is half-maximal. For orientation: EC50 means the concentration at which the effect is half-maximal. In general, Ki refers to a measure of affinity in units of concentration, obtained from inhibition or displacement. A higher Ki goes with a looser hold on the target.

Assay [1] relates to ATX. The settings on record: cited from earlier work.
Another assay deals with ATX tunnel. Also noted: method as in PMID 27075612. The settings on record: partial non-competitive modulators; cited from earlier work.
For assay [2], the target named is T1, ATX (Rattus norvegicus, UniProt Q64610). Briefly: Choline oxidase-coupled choline-release assay of LPC hydrolysis by ATX.
In assay [3] the test system is LPA1-HA-expressing HeLa-Flp-In cells. In words: Confocal microscopy for LPA1 internalization. The assay is classed as cell-based, Human. The settings on record: 1 μM 18:1 LPC, 20 nM ATX, 15 min. As to the method: Human LPA1 cDNA was amplified by PCR to remove its stop codon and add the restriction sites for BamHI and XhoI, after which it was subcloned in an in-house produced pDNA5.1-HA vector. 0.2 μg of the resulting vector and 1.8 μg of pOG44 Flp-Recombinase Expression Vector (Invitrogen) were incubated with 6 μL of Fugene6 (Invitrogen) in 200 μL of OptiMEM (Gibco) for 30 min, after which the mix was added to previously produced HeLa-Flp-In cells.[43] Their medium was refreshed 24 h later, and selection with 1 μg/mL puromycin was started and maintained with resistant cells.
Serum-starved LPA1-HA-expressing HeLa-Flp-In cells cultured on 24 mm (#1,5) were treated with 1 μM LPC and 20 nM ATX in the presence or absence of 22 or 23 for 15 min in DMEM containing 0.05% fatty acid-free BSA. Subsequently, coverslips were washed and fixed with 4% PFA, permeabilized with 0.1% Triton X-100, and blocked with 2% BSA for 1 h. Incubation with anti-HA antibody (3F10 from Roche Diagnostics; 1:200) was done for 1 h, followed by incubation with donkey anti-rat Alexa Fluor 488-conjugated antibody (A-21208 from Invitrogen; 1:200) for 1 h at room temperature. For confocal microscopy, cells were washed with PBS, mounted with Immnuno-MountTM (Thermo Scientific), visualized on a LEICA TCS-SP5 confocal microscope (63× objective), and analyzed using ImageJ software.

Another assay relates to BJeH fibroblasts. Briefly: AKT and ERK phosphorylation by western blotting. The note with it: Homo sapiens, 0.25 h, 15 min. Type of assay: cell-based. Here is the method:
100,000 BJeH cells were seeded in 12-well tissue culture plates and allowed to grow for 24 h in DMEM (GIBCO, Life Technologies) containing 10% FCS (Thermo Scientific) and 100 U mL^–1 streptomycin/penicillin (GIBCO, Life Technologies). Next, they were washed twice with phosphate-buffered saline (PBS) and serum-starved O/N. ATX 20 nM was incubated with inhibitors for 30 min in a serum-free medium containing 0.05% (w/v) fatty acid-free BSA (total volume 1 mL). The medium from the 12-well plates was removed and replaced with 1 mL of the ATX–inhibitor mixture. Cells were stimulated for 15 min, the medium was removed, and plates were immediately frozen on dry ice and stored at −80 °C. For western blotting, cells were washed with cold PBS; lysed in RIPA buffer; supplemented with protease inhibitors (Pierce), 20 mM NaF and 1 mM orthovanadate; and spun down. The protein concentration was measured using a BCA protein assay kit (Pierce), and LDS sample buffer (NuPAGE, Invitrogen) and 1 mM dithiothreitol were added to the lysate. 20 μg of the total protein was loaded on sodium dodecyl sulfate–polyacrylamide gel electrophoresis pre-cast gradient gels (4–12% Nu-Page Bis-Tris, Invitrogen), followed by transfer to a nitrocellulose membrane. Non-specific protein binding was blocked by 5% BSA in PBS-Tween (0.1%); the primary antibodies were phospho-Akt (Ser473), catalogue number: D93, dilution: 1:1,000; phospho-ERK1/2 (Thr202/Tyr204), catalogue number: D13.14.4E, dilution: 1:2,000, from Cell Signaling Technology. They were incubated O/N at 4 °C in PBS–Tween with 5% BSA, containing 0.1% NaN3. Blots were then incubated for 1 h at room temperature with monoclonal anti-β-actin antibody, clone AC-15, dilution: 1:10,000, from Sigma, which was dissolved in PBS–Tween with 5% skimmed milk containing 0.1% NaN3. HRP-conjugated secondary antibodies [goat anti-mouse (Bio-Rad), catalogue number: 1721011; goat anti-rabbit (Pierce), catalogue number: 1858415] were incubated for 1 h at room temperature in PBS–Tween with 2.5% BSA and developed using an ECL Western blot reagent.

The next assay relates to MDA-MB-231 cells. Briefly: Boyden chamber cell migration assay. Type of assay: cell-based. The note with it: migration for 4 h; for EC50: 20 nM ATX, 1 μM 18:1 LPC. Here is the method: Migration of MDA-MB-231 cells was performed using 48-well chemotaxis chambers (Neuro Probe, Inc.) equipped with […] pore polycarbonate membranes, which were coated with fibronectin (10 μg/mL) (F1141, Sigma-Aldrich). Cells (2 × 10^6 cells/mL) were added to the upper chamber. 0.05% fatty acid-free BSA was used as a lysophospholipid carrier. Cells were allowed to migrate for 4 h at 37 °C in humidified air containing 5% CO2. Migrated cells were fixed in Diff-Quik Fix and stained using Diff-Quik II. Migration was quantified by color intensity measurements using Photoshop software.

Assay [4] has as its target T1, ATX. Briefly: Mechanistic studies: mode of inhibition and Ki from LPC titration. Type of assay: biochemical. The arrangement: made in house. Here is the method: The biochemical studies of ATX lysoPLD activity were performed with ATX. Activity was measured by a coupled reaction with 1 U mL^–1 choline oxidase and 2 U mL^–1 horseradish peroxidase (HRP) and 2 mM homovanillic acid (HVA) (all from Sigma-Aldrich). For the assays, 14:0, 16:0, 18:1, and 20:0 LPC (Avanti Polar Lipids Inc.) were incubated with 20 nM ATX, reaching a final volume of 100 μL of the buffer, which contained 50 mM Tris, 0.01%, 50 mM CaCl2, Triton X-100, pH 7.4. Steady-state choline release was measured at 37 °C by HVA fluorescence at λex/λem = 320/460 nm in Corning 96- or 384-well OptiPlate (Sigma-Aldrich) and with a Pherastar plate reader (BMG Labtech). […] The resulting fluorescence intensity signal over time was used to model all inhibitor concentrations simultaneously using the following formula, where vmax and vmin were fitted for the minimum and maximum relative velocities, respectively, and ci corresponds to the inhibitor concentration for each assay[20] [drawing 1] 1
To statistically determine the chance of each type of inhibition, we calculated the α value in the partial mixed inhibition model (eq 5), where Part defines the partiality of the inhibition, and α > 1 or α = 1 correspond to competitive and non-competitive inhibition modes, respectively. Last, we utilized Akaike’s Information Criterion[42] to assess the significance of the analysis [drawing 5] 5

Assay [5] concerns the target T1, ATX. Briefly: Competition with LPA allostery (LPA-mediated activation of ATX). Type of assay: biochemical. The settings on record: inhibitor at concentrations close to or lower than IC50; 150 μM 18:1 LPC, 18:1 LPA, 20 nM ATX. Also noted: made in house. As to the method: The activation assays using LPA were performed in a similar way to those done for the inhibitors. In this case, LPA was dissolved in ethanol/H20 (1:1) and 0.01% TX-100 and was added to the reaction buffer. The presence of ethanol was taken into account, and controls in the absence of ATX and/or LPC were employed to correct the kinetic data. ATX was incubated for 30 min with different concentrations of inhibitors and subsequently added to the reaction buffer containing 150 μM 18:1 LPC and different starting concentrations of 18:1 LPA. The slopes were calculated from at least 60 min after the addition of ATX. The percentage of LPA-driven activation was normalized to ATX in the absence of LPA and inhibitors, which represented 100% activity. Last, the activation constant or AC50 was obtained from the following equation [drawing 2] 2

The mark [6] stands for this setting: 14:0 LPC, 150 μM LPC, 20 nM ATX.
Setting [7] is: 16:0 LPC, 150 μM LPC, 20 nM ATX.
Where [8] appears, read: 18:1 LPC, 150 μM LPC, 20 nM ATX.
Where [9] appears, read: LPC hydrolysis assay, 20 nM ATX.

Read-outs that look alike come from different tables or passages of the source.

“2-[[2-Ethyl-6-[4-[2-(3-hydroxyazetidin-1-yl)-2-oxoethyl]piperazin-1-yl]-8-methylimidazo[1,2-a]pyridin-3-yl]methylamino]-4-(4-fluorophenyl)thiazole-5-carbonitrile [Compound 3]”: the IC50 with ATX [1] was 131 nM.

Regarding `C[C@H](CCC(=O)O)[C@H]1CC[C@H]2[C@@H]3[C@@H](O)C[C@@H]4C[C@H](O)CC[C@]4(C)[C@H]3CC[C@]12C` [Compound 9, ursodeoxycholic acid, reference compound], the “affinity for the ATX tunnel” value in the assay with ATX tunnel was “micromolar”. Half-maximal inhibition on ATX [2] (IC50) was put at 9000 nM.

Consider `C[C@H](CCC(=O)N1CCC(Oc2ccc(B(O)O)cc2)CC1)[C@H]1CC[C@H]2C3[C@@H](O)C[C@@H]4C[C@H](O)CC[C@]4(C)[C@H]3CC[C@]12C` (stereo partly drawn) [Compound 23], for which the “decrease of LPA1 internalization” value in assay [3] is “approximately 75%”. In addition, the concentration giving a half-maximal response (EC50) was approximately 60 nM in the assay on BJeH fibroblasts (BJeH cells, 20 nM ATX, 1 μM 18:1 LPC, read-out: EC50 (P-AKT and P-ERK levels)); 186 ± 99 nM in the assay on MDA-MB-231 cells (Homo sapiens, MDA-MB-231, 4 h); approximately 200 nM with MDA-MB-231 cells. The Emax in the assay on BJeH fibroblasts (BJeH, compared to uninhibited ATX incubated with LPC, read-out: reduction of maximal effective cell response (P-AKT and P-ERK)) was approximately 60%. Moreover, the “reduction of cell migration” value with MDA-MB-231 cells (ATX + LPC) is given as approximately 50%. Further, at ATX [4] (Akaike's informative criteria), the “percentage of competitive versus non-competitive inhibition” value was found to be 99%. Also, the mode of inhibition result on ATX [4] (LPC hydrolysis) is on record as “competitive”. This molecule returned a Ki on ATX [4] (LPC titration at increasing inhibitor concentrations, Michaelis-Menten nonlinear regression) of 9 ± 1 nM. Moreover, the “α (partial mixed inhibition model)” value at ATX [4] (α > 1 competitive, α = 1 non-competitive) is given as 8.5. Further, the “LPA-mediated activation of ATX activity” value on ATX [5] is given as “dose-dependent decrease”. Further, the IC50 at ATX [2] (setting [6]) is 54 nM; at ATX [2] (setting [7]), 34 nM; on ATX [2] (setting [8]), 29 nM; against ATX [2] (20:0 LPC, 150 μM LPC, 20 nM ATX), 33 nM; on ATX [2] (setting [9]) it was 30 nM. The “Residual Activity (%)” value at ATX [2] (setting [6]) was 0%; on ATX [2] (setting [7]), 12%; at ATX [2] (setting [8]) it was 7%; at ATX [2] (20:0 LPC, 150 μM LPC, 20 nM ATX, % of catalytic rate of inhibitor-free control) it was 51%; on ATX [2] (setting [9]), 0%.

These data come from publication PMC9059126, “Structure-Based Design of a Novel Class of Autotaxin Inhibitors Based on Endogenous Allosteric Modulators” (Journal of Medicinal Chemistry, 2022).
